Measurements taken from patent US20170216297A1, “EFFICIENT INHIBITION OF HSP27” (TECHNISCHE UNIVERSITAET DRESDEN, priority 2014, published 2017).

Target: HSP27 (Homo sapiens, UniProt P04792)
Experiment: Capillary electrophoresis of the CS protein precipitates (precipitated citrate synthase as measure of HSP27 inhibition)
Type: biochemical
Conditions: 10 μmol/L; 43° C. for 70 minutes; 750 μmol/L BVDU set at 1
Protocol: (§1) Since the heat-denatured protein aggregates of the citrate synthase from Example 1 are not water-soluble, these can be separated completely from the supernatant by means of centrifugation at room temperature at 16,000×g, 10 min. By using capillary electrophoresis, the compositions of the separated precipitates can be shown and quantified. The relative quantity of protein of precipitated citrate synthase serves as a measure of the efficacy of the test substances.
(§2) In each case, 481 nmol/L HSP27 and 1.44 μmol/L citrate synthase in 40 mmol/L HEPES buffer, pH 7.4, were employed. The relative quantity of protein of the precipitated citrate synthase in each case was normalized using a defined quantity of BSA as internal standard. The relative quantity of protein that precipitated when using 750 μmol/L BVDU was set at 1. The other test substances (2 representatives of phenothiazine derivatives of general formula (V), 2 representatives of purine derivatives of formula (I) or (II)) were each employed at a concentration of 10 μmol/L.
as §1, with “Example 2” for “Example 1”
as §2, with “nM” for “nmol/L”, “thymine” for “purine”, “were” for “were each”, “μmol/L in each case.” for “μmol/L.”
Otherwise, the experiments were performed as described above: […]

HSP27, sequence (P04792 whole entry): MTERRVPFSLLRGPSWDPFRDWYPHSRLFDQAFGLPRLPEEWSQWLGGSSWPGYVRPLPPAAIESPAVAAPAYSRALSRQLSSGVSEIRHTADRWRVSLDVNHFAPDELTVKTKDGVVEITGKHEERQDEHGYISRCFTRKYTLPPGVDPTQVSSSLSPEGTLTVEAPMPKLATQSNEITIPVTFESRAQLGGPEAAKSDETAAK

Compound	Rel. quantity of protein prec. CS
Cc1cn(C2C[C@H](n3cc(-c4cccc(Br)c4)nn3)[C@@H](CO)O2)c(=O)[nH]c1=O (stereo partly drawn) [1-[(4S,5S)-4-[4-(3-Bromophenyl)-1H-1,2,3-triazol-1-yl]-5-(hydroxymethyl)oxolan-2-yl]-5-methyl-1,2,3,4-tetrahydropyrimidine-2,4-dione]	0.81
Cc1cn([C@H]2C[C@H](n3cc(-c4ccc(F)cc4)nn3)[C@@H](CO)O2)c(=O)[nH]c1=O [3′-Deoxy-3′-[4-(4-fluorophenyl)-1H-1,2,3-triazol-1-yl]-thymidine]	0.66
CCCCc1cn([C@H]2C[C@H](n3cc(C)c(=O)[nH]c3=O)O[C@@H]2CO)nn1 [3′-(4-Butyl-1H-1,2,3-triazol-1-yl)-3′-deoxythymidine]	0.76
COc1ccc(-c2cn([C@H]3CC(n4cc(C)c(=O)[nH]c4=O)O[C@@H]3CO)nn2)cc1 (stereo partly drawn) [1-[(4S,5S)-5-(Hydroxymethyl)-4-[4-(4-methoxyphenyl)-1,2,3-triazol-1-yl]oxolan-2-yl]-5-methyl-3H-pyrimidine-2,4-dione]	0.75
Cc1cn([C@H]2C[C@H](n3cc(CCc4ccccc4)nn3)[C@@H](CO)O2)c(=O)[nH]c1=O [3′-Deoxy-3′-[4-(2-phenylethyl)-1H-1,2,3-triazol-1-yl]-thymidine]	0.74
Cc1cn(C/C=C\CNC(=O)Cc2ccc3ccccc3c2)c(=O)[nH]c1=O [N-[(2Z)-4-(5-Methyl-2,4-dioxo-3H-pyrimidin-1-yl)but-2-en-1-yl]-2-(naphthalen-2-yl)acetamide]	0.83
Cc1cn([C@H]2C[C@H](n3cc(-c4ccccn4)nn3)[C@@H](CO)O2)c(=O)[nH]c1=O [3′-Deoxy-3′-[4-(2-pyridinyl)-1H-1,2,3-triazol-1]-yl]thymidine]	0.84
Cc1cn(C2C[C@H](n3cc(-c4ccc(Br)cc4)nn3)[C@@H](CO)O2)c(=O)[nH]c1=O (stereo partly drawn) [1-[(4S,5S)-4-[4-(4-Bromophenyl)-1,2,3-triazol-1-yl]-5-(hydroxymethyl)oxolan-2-yl]-5-methyl-3H-pyrimidine-2,4-dione]	0.64
Cc1cn(C/C=C\CNC(=O)C2c3ccccc3-c3ccccc32)c(=O)[nH]c1=O [N-[(2Z)-4-(5-Methyl-2,4-dioxo-3H-pyrimidin-1-yl)but-2-en-1-yl]-9H-fluorene-9-carboxamide]	0.86
Cc1cn([C@H]2C[C@H](n3cc(-c4ccccc4)nn3)[C@@H](CO)O2)c(=O)[nH]c1=O [3′-Deoxy-3′-(4-phenyl-1H-1,2,3-triazol-1-yl)thymidine]	0.79
Cc1cn(CCCCNC(=O)Cc2ccc3ccccc3c2)c(=O)[nH]c1=O [N-[4-(5-Methyl-2,4-dioxo-3H-pyrimidin-1-yl)butyl]-2-(naphthalen-2-yl)acetamide]	0.75
CCCc1cn([C@H]2C[C@H](n3cc(C)c(=O)[nH]c3=O)O[C@@H]2CO)nn1 [3′-Deoxy-3′-(4-propyl-1H-1,2,3-triazol-1-yl)thymidine]	0.79
CCCCCc1cn([C@H]2C[C@H](n3cc(C)c(=O)[nH]c3=O)O[C@@H]2CO)nn1 [3′-Deoxy-3′-(4-pentyl-1H-1,2,3-triazol-1-yl)thymidine]	0.70
Cc1cn(CCCCNC(=O)C2c3ccccc3-c3ccccc32)c(=O)[nH]c1=O [N-[4-(5-Methyl-2,4-dioxo-3H-pyrimidin-1-yl)butyl]-9H-fluorene-9-carboxamide]	0.58
Cc1cn(CCCCNC(=O)C(c2ccccc2)c2ccccc2)c(=O)[nH]c1=O [N-[4-(5-Methyl-2,4-dioxo-3H-pyrimidin-1-yl)butyl]-2,2-diphenylacetamide]	0.79
Cc1cn([C@H]2C[C@H](n3cc(-c4ccc(Cl)cc4)nn3)[C@@H](CO)O2)c(=O)[nH]c1=O [3′-[4-(4-Chlorophenyl)-1H-1,2,3-triazol-1-yl]-3′-deoxythymidine]	0.67
